Assay results taken from patent US3962243A (Laboratories Made, S.A., priority 1974, dated 1976).

Legend:
bronchial spasm = assay: Bronchial spasmolytic action; format: in vivo
mice = assay: Sub-acute and chronic toxicity; format: in vivo; settings: administration to mice over periods of 2 and 6 months
[1] = test system: rat complete brain homogenates; assay: Action on cerebral oxidative activity (oxygen consumption); settings: 1 × 10^-^3 and 1 × 10^-^4 M

With “2-[(2-dimethylaminoethyl) (p-methoxybenzyl)amino]-pyridine 1,2,3,6-tetrahydro-1,3-dimethyl-2,6-dioxopurin-7-acetate” the “duration of activity, bronchial spasmolytic action” value (bronchial spasm; in vivo) was “over 5 hours”, the “action against bronchial spasm by route” value (bronchial spasm; oral, rectal, intramuscular and intravenous) was “Effective action against bronchial spasm is obtainable by all routes” and the “active dose, bronchial spasmolytic action” value (bronchial spasm; very small doses) was 6 µg/kg. For the same substance, the “microscopic or macroscopic organ alteration” value (mice) was “No microscopic or macroscopic organ alteration” and the “inhibition of the oxygen consumption” value [1] was “strong inhibition of the oxygen consumption”.
